Test system: PDE IV
Experiment: inhibition of PDE IV isolated from canine trachea (cAMP metabolism)
Type: biochemical
Details: PDE IV from canine tracheal muscle; 1 μM 3H-cAMP; 10 μM CI-930; 30° C., pH 7.8; reduction expressed as percentage of that by 10 μM rolipram
Experimental: The following assay is employed to assess the ability of the compounds of the invention to inhibit PDE IV.
A solution containing PDE IV is prepared from canine tracheal muscle as follows:
The dog is euthanized with an overdose of beuthanasia while under anesthesia induced by a 33 mg/kg IV bolus of Nembutal. The trachealis muscle is removed, cleaned of connective tissue, and minced thoroughly. Three to four grams of tissue is then homogenized in Tris-HCl buffer (pH 7.8) using a Polytron. The homogenate is then centrifuged at 25,000×g (4° C.) for 30 minutes. The supernatant is decanted and filtered through four layers of gauze, and applied to a 40 cm×2 cm DEAE-Sepharose column that is equilibrated with Tris-HCl buffer (pH 7.8). The column is then washed with an additional 240 mL of buffer to remove unbound proteins. PDE is eluted using 450 mL of Tris-HCl buffer containing a linear gradient of 0.0-1.0M Na-acetate (80 mL/hr), and 7.5 mL fractions are collected. Each fraction is assayed for cAMP- and cGMP-metabolizing PDE activity. Fractions eluting at approximately 0.6M Na-acetate, and containing cAMP but not cGMP metabolic activity are pooled and used as a PDE stock solution for assaying PDE IV inhibitory activity.
CI-930 is included as an inhibitor of the cyclic GMP-sensitive, cyclic AMP-selectivePDE (PDE III) that is also present in the PDE IV stock solution when prepared as described above.

| Structure (SMILES) | IC50 [nM] |
| --- | --- |
| CCCCOc1cc(/C(C)=N/OC(N)=O)ccc1OC [Example 2, 1-[3-(Butoxy)-4-methoxyphenyl]ethanone (E)-O-(aminocarbonyl)oxime] | 90 |
| COc1ccc(/C(C)=N/OC(N)=O)cc1OCCCOc1ccccc1 [Example 3, 1-[4-Methoxy-3-(3-phenoxypropoxy)phenyl]ethanone (E)-O-(aminocarbonyl)oxime] | 410 |
| COc1ccc(/C(Cc2ccccc2)=N/OC(N)=O)cc1OC1CCCC1 [Example 4, 1-(3-Cyclopentyloxy-4-methoxyphenyl)-2-phenylethanone (E)-O-(aminocarbonyl)oxime] | 47 |
| COc1ccc(/C(CCc2ccccc2)=N/OC(N)=O)cc1OC1CCCC1 [Example 5, 1-(3-Cyclopentyloxy-4-methoxyphenyl)-3-phenylpropanone (E)-O-(aminocarbonyl)oxime] | 25 |
| CNC(=O)O/N=C(\C)c1ccc(OC)c(OC2CCCC2)c1 [Example 7, 1-[3-(Cyclopentyloxy)-4-methoxyphenyl]ethanone (E)-O-[(methylamino)carbonyl]oxime] | 120 |
| CCCCOc1cc(/C(C)=N/OC(=O)NC)ccc1OC [Example 8, 1-(3-butoxy-4-methoxyphenyl)ethanone (E)-O-[(methylamino)carbonyl]oxime] | 200 |
| CCCCOc1cc(/C(C)=N/OC(=O)Nc2ccccc2)ccc1OC [Example 9, 1-(3-butoxy-4-methoxyphenyl)ethanone (E)-O-[(phenylamino)carbonyl]oxime] | 1500 |
| CCCCOc1cc(/C(C)=N/OC(=O)OC)ccc1OC [Example 11, 1-(3-butoxy-4-methoxyphenyl)ethanone (E)-O-(methoxycarbonyl)oxime] | 240 |
| CCCCOc1cc(/C(C)=N/OC(=O)Oc2ccccc2)ccc1OC [Example 12, 1-(3-butoxy-4-methoxyphenyl)ethanone (E)-O-(phenoxycarbonyl)oxime] | 380 |

Now from value to compound:

| IC50 [nM] | Structure (SMILES) |
| --- | --- |
| 48 | COc1ccc(/C(C)=N/OC(N)=O)cc1OC1CCCC1 [Example 1, 1-[3-(Cyclopentyloxy)-4-methoxyphenyl]ethanone (E)-O-(aminocarbonyl)oxime] |
| 130 | COc1ccc(/C(CC(C)C)=N/OC(N)=O)cc1OC1CCCC1 [Example 6, 1-[3-(Cyclopentyloxy)-4-methoxyphenyl]-3-methylbutanone (E)-O-(aminocarbonyl)oxime] |
| 180 | COC(=O)O/N=C(\C)c1ccc(OC)c(OC2CCCC2)c1 [Example 10, 1-[3-(cyclopentyloxy)-4-methoxyphenyl]ethanone (E)-O-(methoxycarbonyl)oxime] |
| 67 | COc1ccc(/C(C)=N/OC(N)=O)cc1OC1CC2CCC1C2 (stereo not shown) [Example 13, 1-[3-(bicyclo[2.2.1]hept-2-yloxy)-4-methoxyphenyl]ethanone (E)-O-(aminocarbonyl)oxime] |

— US5124455A, “Oxime-carbamates and oxime-carbonates as bronchodilators and anti-inflammatory agents” (American Home Products Corporation, priority 1990, dated 1992)
